Measured values: PubChem BioAssay AID1380 (University of Pittsburgh Molecular Library Screening Center, 2008)
The source made the active and inactive calls. The rule behind the calls is not given here.

Molecular target: Cyclin-dependent kinase 7 (Homo sapiens) (UniProt P50613)
Assay: off-target CDK7 activity blockade – biochemical, 57K library addition, counter-screen for PKD inhibitor project, dose response (AID 1380)
Conditions: CDK7 biochemical kinase assay, counterscreen

Cyclin-dependent kinase 7 (Homo sapiens), sequence (P50613 whole entry, looked up): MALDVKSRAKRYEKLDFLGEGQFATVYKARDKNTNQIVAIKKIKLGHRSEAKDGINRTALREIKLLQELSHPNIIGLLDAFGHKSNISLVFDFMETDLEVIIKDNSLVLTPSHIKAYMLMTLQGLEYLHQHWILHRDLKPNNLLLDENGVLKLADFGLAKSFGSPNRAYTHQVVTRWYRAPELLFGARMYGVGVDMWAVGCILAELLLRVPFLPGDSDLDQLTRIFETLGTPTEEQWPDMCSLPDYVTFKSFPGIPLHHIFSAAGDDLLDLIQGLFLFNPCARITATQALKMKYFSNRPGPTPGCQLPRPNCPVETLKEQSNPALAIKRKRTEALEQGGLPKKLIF

IC50: > 100 µM (inactive)
Compound: C/C(=N\Nc1ncc(Cl)cc1Cl)c1ccccn1
